# Non-standard residues stand in square brackets, D forms with d. No end group written: not given here. pY = N[C@@H](Cc1ccc(OP(=O)(O)O)cc1)C(=O)O
# Columns and labels:
# pY705-STAT3 = experiment: Western blotting of p-STAT3 in HCT116 cells; format: cell-based, human
# Source text: Figure 3 PS-acet.-STAT3 peptide inhibits STAT3 activity and downregulates the expression of STAT3 targets. (A) Downregulation of STAT3 activity and its downstream target proteins shown in human HCT116 colorectal cancer cells by Western blotting (data represent 1 of the 3 experiments, n = 3). PO-acet.-STAT3 and PS-STAT3-K685R peptides were used in parallel as controls. (B) STAT3 inhibition regulated the expression of proliferation and apoptotic genes, assessed by real-time quantitative PCR. Data present mean ± SD, n = 3 independent experiments, 1-way ANOVA; ***P < 0.005; **P < 0.01. […] For p53 promoter assay, data represent 3 replicates in 3 independent experiments (n = 9). For cell proliferation assay, data represent 3 independent experiments. SD is shown (n = 3). One-way ANOVA; ***P < 0.005; **P < 0.01.
# Whole cell lysates or tissue homogenates were prepared by using RIPA lysis buffer (50 mM Tris at pH 7.4, 150 mM NaCl, 1 mM EDTA, 0.5% NP-40, 1 mM NaF, 15% glycerol, and 20 mM β-glycerophosphate). A protease inhibitor cocktail (Mini Protease Inhibitor Cocktail; Roche) and a tyrosine phosphatase inhibitor, sodium orthovanadate (Na3VO4, 1 mM), were added freshly to the lysis buffer. Protein amounts were determined by BCA using a Thermo Fisher Scientific kit. Normalized protein amounts were subjected to an SDS-PAGE and transferred onto a nitrocellulose membrane for Western blotting. […] The protein levels for STAT1 (sc-346, E-23), STAT3 (sc-482, C-20), STAT5 (sc-74442, A-9), Crm1 (exportin 1) (sc-5595, H-300), CAS (exportin 2) (sc-271537, H-2), exportin 5 (sc-66885, H-300), and exportin 7 (sc-98639, H-82) were determined using antibodies from Santa Cruz Biotechnology Inc. Anti–exportin 3 (exportin T, 630622, LOS1 05-1525), anti–exportin 4 (3499-1), and anti–exportin 6 (11408-1-AP) were from MilliporeSigma, Epitomics, and Proteintech, respectively. […]
# (§1) Supplemental Figure 4 (related to Figure 1). […] Phosphorylation of STAT3 at Y705 and STAT5 at Y694 was detected by Western blotting after 48 hours treatment of PS-acet.-STAT3 peptide (1 µM) or napabucasin (1 µM) in HCT116 cells. […]
# pY694-STAT5 = experiment: Western blotting of p-STAT5 in HCT116 cells; format: cell-based, human; settings: HCT116, 1 µM, 48 hours
# Experimental: Whole cell lysates or tissue homogenates were prepared by using RIPA lysis buffer (50 mM Tris at pH 7.4, 150 mM NaCl, 1 mM EDTA, 0.5% NP-40, 1 mM NaF, 15% glycerol, and 20 mM β-glycerophosphate). A protease inhibitor cocktail (Mini Protease Inhibitor Cocktail; Roche) and a tyrosine phosphatase inhibitor, sodium orthovanadate (Na3VO4, 1 mM), were added freshly to the lysis buffer. Protein amounts were determined by BCA using a Thermo Fisher Scientific kit. Normalized protein amounts were subjected to an SDS-PAGE and transferred onto a nitrocellulose membrane for Western blotting. Proteins were visualized with a chemiluminescent detection kit (Pierce, Thermo Fisher Scientific). The protein levels for STAT1 (sc-346, E-23), STAT3 (sc-482, C-20), STAT5 (sc-74442, A-9), Crm1 (exportin 1) (sc-5595, H-300), CAS (exportin 2) (sc-271537, H-2), exportin 5 (sc-66885, H-300), and exportin 7 (sc-98639, H-82) were determined using antibodies from Santa Cruz Biotechnology Inc. Anti–exportin 3 (exportin T, 630622, LOS1 05-1525), anti–exportin 4 (3499-1), and anti–exportin 6 (11408-1-AP) were from MilliporeSigma, Epitomics, and Proteintech, respectively. […]
# as §1
# cancer cells = experiment: Confocal microscopy of peptide localisation; format: cell-based; settings: 1 μM, 1 hour
# Experimental: (§2) Figure 8 PS-Gp130 and PS-MYC blocking peptides efficiently internalize into tumor cells to exert their functions. (A) For 1 hour 1 μM of PS-conjugated MYC (PS-MYC) and Gp130 (PS-Gp130) were incubated with cancer cells. PS-scramble MYC (PS-SC-MYC) was used as a control for PS-MYC. The peptide uptake was visualized by confocal microscopy and quantified by flow cytometry. Data are representative of 3 independent experiments (n = 3). (B) Upper panel: The binding of PS-Gp130 and STAT3 was examined by immunoprecipitation and Western blotting. PO-Gp130 was used as a control. For 4 hours prior to harvest, 1 μM of peptide was incubated with cells. Lower panel: PS-Gp130 inhibits IL-6–induced phosphorylation of STAT3 and p44/42 but not EGF-mediated signaling. The cells were preincubated with PS-Gp130 for 2 hours and then stimulated with 20 ng/mL of IL-6 or 30 ng/mL of EGF for 30 minutes before harvest and Western blotting. (C) Gene expression of STAT3 targets was examined by quantitative PCR after the treatment with 1 μM of PS-Gp130 with or without IL-6 stimulation as described above. Data shown are 3 independent experiments (n = 3); SD is shown. Unpaired Student’s t test; ***P < 0.005; **P < 0.01; *P < 0.05. (D) A total of 1 μM of PS-SC-MYC or PS-MYC was incubated with cells for 48 hours before the gene expression of MYC targets was examined by quantitative PCR. […]
# [1] = test system: EGF-mediated ERK phosphorylation; experiment: EGF-mediated ERK phosphorylation, Western blotting; format: cell-based; settings: preincubated 2 hours, 30 ng/mL EGF for 30 minutes
# Experimental: as §2
Substance,"phosphorylated STAT3 (p-STAT3, Y705) level (pY705-STAT3; HCT116, 1 µM, 48 hours)","STAT3 activation (pY705-STAT3) (pY705-STAT3; HCT116, approximately 1 μM)",p-STAT5 (Y694) level (pY694-STAT5),intracellular localisation / retention of peptide (cancer cells),EGF-mediated ERK phosphorylation [1]
PDIPKEEAFGK685(Ac)YCRPESQEHPC-linker-T*C*C*A*T*G*A*G*C*T*T*C*C*T*G*A*T*G*C*T [PS-acet.-STAT3 peptide],reduced,significant downregulation,not,–,–
"PS-Gp130: PS-conjugated Gp130 peptide (amino acids 901–910) with phospho-Tyr905 (MPKS[pY]LPQTV; also: phosphorothioate oligonucleotide conjugate; UniProt P40189 901-910, looked up, fragment)",–,–,–,detected in the cytoplasm or associated with the membrane,not
